Assay results: PubChem BioAssay AID256 (DTP/NCI, 2004)
Values joined by “and” are separate entries in the source; they are usually repeats but may differ in a detail not shown here. Equal entries are not always repeated. Inconclusive results and toxic doses are left out.

System: CD2F1 mice, L1210 leukemia ip, survival T/C
Assay: NCI In Vivo Anticancer Drug Screen. Data for tumor model L1210 Leukemia (intraperitoneal) in CD2F1 (CDF1) mice
Details: higher = longer survival
Method in brief: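 Mice carrying a transplanted tumor received test compound or vehicle alone. The value is the measurement in the treated group divided by that in the vehicle-treated control group.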

[1] = endpoint: mean survival time, dose: 100.0 mg/kg/injection, schedule: Q01DX009 (ip), vehicle: saline with Tween-80
[2] = endpoint: mean survival time, dose: 100.0 mg/kg/injection, schedule: Q04DX003 (ip), vehicle: saline with Tween-80
[3] = endpoint: mean survival time, dose: 200.0 mg/kg/injection, schedule: Q01DX009 (ip), vehicle: saline with Tween-80
[4] = endpoint: mean survival time, dose: 50.0 mg/kg/injection, schedule: Q01DX009 (ip), vehicle: Klucel (hydroxypropylcellulose) (HPC)
[5] = endpoint: mean survival time, dose: 100.0 mg/kg/injection, schedule: Q01DX001 (ip), vehicle: saline with Tween-80
[6] = endpoint: mean survival time, dose: 200.0 mg/kg/injection, schedule: Q01DX001 (ip), vehicle: saline with Tween-80
[7] = endpoint: mean survival time, dose: 100.0 mg/kg/injection, schedule: Q04DX002 (ip), vehicle: saline with Tween-80
[8] = endpoint: mean survival time, dose: 200.0 mg/kg/injection, schedule: Q04DX002 (ip), vehicle: saline with Tween-80
[9] = endpoint: mean survival time, dose: 400.0 mg/kg/injection, schedule: Q04DX002 (ip), vehicle: saline with Tween-80

SMILES: CCCCC(C)(O)CC (centres undefined)
- T/C [1]: 93 % of control
- T/C [2]: 95 % of control
- T/C [3]: 95 % of control
- T/C (endpoint: mean survival time, dose: 200.0 mg/kg/injection, schedule: Q04DX003 (ip), vehicle: saline with Tween-80): 105 % of control
- T/C (endpoint: mean survival time, dose: 400.0 mg/kg/injection, schedule: Q04DX003 (ip), vehicle: saline with Tween-80): 107 % of control

SMILES: CCCCOCCOCCOCc1cc2c(cc1CCC)OCO2
- T/C [4]: 96 % of control
- T/C (endpoint: mean survival time, dose: 100.0 mg/kg/injection, schedule: Q01DX009 (ip), vehicle: Klucel (hydroxypropylcellulose) (HPC)): 89 % of control
- T/C (endpoint: mean survival time, dose: 200.0 mg/kg/injection, schedule: Q01DX009 (ip), vehicle: Klucel (hydroxypropylcellulose) (HPC)): 100 % of control

SMILES: CC(C)CCCCCOC(=O)Nc1cccc2ccccc12
- T/C [5]: 92 % of control
- T/C [6]: 89 % of control
- T/C (endpoint: mean survival time, dose: 400.0 mg/kg/injection, schedule: Q01DX001 (ip), vehicle: saline with Tween-80): 92 % of control

SMILES: COc1cccc2c1CCN1C3=C(CC(OC)CC3)C(=O)CC21 (centres undefined)
- T/C (endpoint: mean survival time, dose: 25.0 mg/kg/injection, schedule: Q04DX002 (ip), vehicle: saline with Tween-80): 93 % of control
- T/C (endpoint: mean survival time, dose: 50.0 mg/kg/injection, schedule: Q04DX002 (ip), vehicle: saline with Tween-80): 104 % of control
- T/C [7]: 96 % of control
- T/C [2]: 101 % of control

SMILES: Nc1ccc(-c2ccc(C(=O)O)cc2)cc1
- T/C [5]: 104 % of control and 108 % of control
- T/C [7]: 101 % of control and 107 % of control
- T/C [6]: 93 % of control and 98 % of control
- T/C [8]: 95 % of control and 96 % of control
- T/C [9]: 87 % of control

SMILES: CN1c2c(nc(N)[nH]c2=O)NCC1CCNc1ccc(C(=O)NC(CCC(=O)O)C(=O)O)cc1 (centres undefined)
- T/C (endpoint: mean survival time, dose: 25.0 mg/kg/injection, schedule: Q01DX009 (ip), vehicle: Klucel (hydroxypropylcellulose) (HPC)): 118 % of control
- T/C [4]: 123 % of control
- T/C (endpoint: mean survival time, dose: 200.0 mg/kg/injection, schedule: Q01DX009 (ip), vehicle: sodium bicarbonate): 119 % of control
- T/C (endpoint: mean survival time, dose: 1250.0 mg/kg/injection, schedule: Q01DX009 (ip), vehicle: sodium bicarbonate): 155 % of control

SMILES: CC(=O)C1CC(=O)c2c(O)ccc(O)c2C1 (centres undefined)
- T/C (endpoint: mean survival time, dose: 12.5 mg/kg/injection, schedule: Q01DX009 (ip), vehicle: water): 95 % of control
- T/C (endpoint: mean survival time, dose: 25.0 mg/kg/injection, schedule: Q01DX009 (ip), vehicle: water): 101 % of control
- T/C (endpoint: mean survival time, dose: 50.0 mg/kg/injection, schedule: Q01DX009 (ip), vehicle: water): 95 % of control
- T/C (endpoint: mean survival time, dose: 100.0 mg/kg/injection, schedule: Q01DX009 (ip), vehicle: water): 100 % of control
- T/C (endpoint: mean survival time, dose: 200.0 mg/kg/injection, schedule: Q01DX009 (ip), vehicle: water): 100 % of control

SMILES: Nc1nc2ncc(CNc3ccc(C(=O)NC(CCC(=O)O)C(=O)O)cc3)nc2c(=O)[nH]1.[NH-]C1CCCCC1[NH-].[Pt+2] (centres undefined)
- T/C (endpoint: median survival time, dose: 3.12 mg/kg/injection, schedule: Q04DX003 (ip), vehicle: saline): 102 % of control and 104 % of control
- T/C (endpoint: median survival time, dose: 6.25 mg/kg/injection, schedule: Q04DX003 (ip), vehicle: saline): 107 % of control and 108 % of control
- T/C (endpoint: median survival time, dose: 12.5 mg/kg/injection, schedule: Q04DX003 (ip), vehicle: saline): 105 % of control
- T/C (endpoint: median survival time, dose: 25.0 mg/kg/injection, schedule: Q04DX003 (ip), vehicle: saline): 116 % of control and 108 % of control
- T/C (endpoint: median survival time, dose: 50.0 mg/kg/injection, schedule: Q04DX003 (ip), vehicle: saline): 114 % of control and 111 % of control
- T/C (endpoint: median survival time, dose: 100.0 mg/kg/injection, schedule: Q04DX003 (ip), vehicle: saline): 113 % of control and 115 % of control
- T/C (endpoint: median survival time, dose: 200.0 mg/kg/injection, schedule: Q04DX003 (ip), vehicle: saline): 161 % of control

SMILES: Cn1c(=O)c(CC(O)C(Cl)(Cl)Cl)nc2ccccc21 (centres undefined)
- T/C (endpoint: mean survival time, dose: 100.0 mg/kg/injection, schedule: Q04DX003 (ip), vehicle: Klucel (hydroxypropylcellulose) (HPC)): 95 % of control
- T/C (endpoint: mean survival time, dose: 200.0 mg/kg/injection, schedule: Q04DX003 (ip), vehicle: Klucel (hydroxypropylcellulose) (HPC)): 95 % of control
- T/C (endpoint: mean survival time, dose: 400.0 mg/kg/injection, schedule: Q04DX003 (ip), vehicle: Klucel (hydroxypropylcellulose) (HPC)): 98 % of control

SMILES: COc1ccc(NC(=O)Nc2cc(C(F)(F)F)ccc2Cl)cc1
- T/C [1]: 90 % of control
- T/C [3]: 98 % of control
- T/C (endpoint: mean survival time, dose: 400.0 mg/kg/injection, schedule: Q01DX009 (ip), vehicle: saline with Tween-80): 86 % of control

SMILES: CC(C)(C)c1cc(O)c(O)c(C(C)(C)C)c1
- T/C (endpoint: mean survival time, dose: 100.0 mg/kg/injection, schedule: Q04DX003 (ip), vehicle: other): 101 % of control
- T/C (endpoint: mean survival time, dose: 200.0 mg/kg/injection, schedule: Q04DX003 (ip), vehicle: other): 95 % of control

SMILES: O=[As](O)(CC(O)COc1ccc(Cl)cc1Cl)c1cccc(Cl)c1 (centres undefined)
- T/C (endpoint: mean survival time, dose: 6.25 mg/kg/injection, schedule: Q04DX003 (ip), vehicle: saline with Tween-80): 98 % of control
- T/C (endpoint: mean survival time, dose: 12.5 mg/kg/injection, schedule: Q04DX003 (ip), vehicle: saline with Tween-80): 110 % of control

SMILES: CC(C)NC(=O)Nc1ccccc1Cl
- T/C [7]: 93 % of control
- T/C [8]: 97 % of control
- T/C [9]: 104 % of control
